Assay results reported in the supplement of paper PMC10307832.

Experiments:
Assay in all cases: relative viability (nuclei count vs DMSO), 5 days (fraction); higher = more cells survive
GW-2580 + Luminespib = compound: COC1=CC=C(C=C1)COC2=C(C=C(C=C2)CC3=CN=C(N=C3N)N)OC [GW-2580] + CCNC(=O)c1noc(-c2cc(C(C)C)c(O)cc2O)c1-c1ccc(CN2CCOCC2)cc1 [Luminespib] (partner 0.01 µM)
How it was run: (§1)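 Relative viability is defined as nuclei in treated wells over nuclei in vehicle wells. Duplicate plates were run and medians reported. Lung cancer cell lines in 1536-well plates were dosed by pin tool one day after seeding, with one drug or with a fixed anchor-drug dose plus five library-drug doses (not always all listed) in √10 steps, and nuclei were counted after 5 days.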

GW-2580 + Lapatinib = compound: COC1=CC=C(C=C1)COC2=C(C=C(C=C2)CC3=CN=C(N=C3N)N)OC [GW-2580] + CS(=O)(=O)CCNCc1ccc(-c2ccc3ncnc(Nc4ccc(OCc5cccc(F)c5)c(Cl)c4)c3c2)o1 [Lapatinib] (partner 2 µM)
How it was run: as §1

Fedratinib + OSI-027 = compound: Cc1cnc(Nc2ccc(OCCN3CCCC3)cc2)nc1Nc1cccc(S(=O)(=O)NC(C)(C)C)c1 [Fedratinib] + COc1cccc2cc(-c3nc([C@H]4CC[C@H](C(=O)O)CC4)n4ncnc(N)c34)[nH]c12 [OSI-027] (partner 0.5 µM)
How it was run: as §1

Fedratinib + Tozasertib = compound: Cc1cnc(Nc2ccc(OCCN3CCCC3)cc2)nc1Nc1cccc(S(=O)(=O)NC(C)(C)C)c1 [Fedratinib] + Cc1cc(Nc2cc(N3CCN(C)CC3)nc(Sc3ccc(NC(=O)C4CC4)cc3)n2)n[nH]1 [Tozasertib] (partner 0.1 µM)
How it was run: as §1

Fedratinib + Alpelisib = compound: Cc1cnc(Nc2ccc(OCCN3CCCC3)cc2)nc1Nc1cccc(S(=O)(=O)NC(C)(C)C)c1 [Fedratinib] + Cc1nc(NC(=O)N2CCC[C@H]2C(N)=O)sc1-c1ccnc(C(C)(C)C(F)(F)F)c1 [Alpelisib] (partner 2 µM)
How it was run: as §1

Fedratinib + Olaparib = compound: Cc1cnc(Nc2ccc(OCCN3CCCC3)cc2)nc1Nc1cccc(S(=O)(=O)NC(C)(C)C)c1 [Fedratinib] + O=C(c1cc(Cc2n[nH]c(=O)c3ccccc23)ccc1F)N1CCN(C(=O)C2CC2)CC1 [Olaparib] (partner 8 µM)
How it was run: as §1

Cell Line	relative viability (GW-2580 + Luminespib; first compound 0.08 µM)	relative viability (GW-2580 + Luminespib; first compound 0.8 µM)	relative viability (GW-2580 + Luminespib; first compound 2.53 µM)	relative viability (GW-2580 + Luminespib; first compound 8 µM)	relative viability (GW-2580 + Lapatinib; first compound 0.08 µM)	relative viability (GW-2580 + Lapatinib; first compound 0.8 µM)	relative viability (GW-2580 + Lapatinib; first compound 2.53 µM)	relative viability (GW-2580 + Lapatinib; first compound 8 µM)	relative viability (Fedratinib + OSI-027; first compound 0.1 µM)	relative viability (Fedratinib + OSI-027; first compound 0.3162 µM)	relative viability (Fedratinib + OSI-027; first compound 1 µM)	relative viability (Fedratinib + Tozasertib; first compound 0.1 µM)	relative viability (Fedratinib + Tozasertib; first compound 0.3162 µM)	relative viability (Fedratinib + Tozasertib; first compound 1 µM)	relative viability (Fedratinib + Alpelisib; first compound 0.1 µM)	relative viability (Fedratinib + Alpelisib; first compound 0.3162 µM)	relative viability (Fedratinib + Alpelisib; first compound 1 µM)	relative viability (Fedratinib + Olaparib; first compound 0.1 µM)	relative viability (Fedratinib + Olaparib; first compound 0.3162 µM)	relative viability (Fedratinib + Olaparib; first compound 1 µM)
NCI-H460	0.0341	0.0427	0.0355	0.0322	1.86	1.31	0.689	1.01	0.642	0.645	0.507	0.078	0.379	0.334	0.536	0.581	0.259	0.483	0.395	0.415
NCI-H520	0.224	0.202	0.196	0.274	0.973	0.926	0.849	0.931	0.255	0.253	0.216	0.438	0.467	0.405	0.912	0.845	0.805	0.306	0.347	0.29
NCI-H596	0.987	1.03	0.998	0.913	1.25	1.2	0.996	1.2	0.577	0.727	0.746	0.899	0.878	0.916	0.459	0.576	0.506	0.643	0.6	0.572
NCI-H647	0.128	0.323	0.136	0.205	1.22	1.29	0.926	1.15	0.625	0.697	0.444	0.249	0.336	0.214	1.13	1.09	0.809	0.697	0.467	0.373
NCI-H650	0.872	0.857	0.676	0.618	0.93	1.09	0.801	0.864	0.456	0.469	0.454	0.312	0.764	0.69		1.03	0.865	0.367	0.372	0.379
NCI-H661	0.978	0.996	0.931	0.704	0.448	0.647	0.378	0.459	0.729	0.735	0.55	0.327	0.326	0.371	0.835	0.452	0.629	0.713	0.77	0.748
NCI-H727		0.539	0.344	0.382	0.792	1.04	0.735	0.791	0.504	0.674	0.534	0.493	0.823	0.656	0.597	0.609	0.532	0.732	0.787	0.741
NCI-H838	0.266	0.31	0.376	0.338	0.994	1.11	0.789	0.987	0.31	0.471	0.259	0.248	0.271	0.21	0.979	0.954	0.954	0.677	0.837	0.6
